Tested on: Chlorella minutissima
Test: Algal growth by percent transmittance at 750 nm
Assay type: cell-based
Procedure: Two species of Chlorella were examined for growth—Chlorella sorokiniana a freshwater species and Chlorella minutissima a marine species. […] Growth was measured on day 0, 1, 2, 3, 4, 5, 6, 7, 8, 9 and 10. […] The following media were purchased from UTEX Culture Collection of Algae: Enriched Salt Water Medium and Volvox Dextrose Medium.
The algae were grown for 48 hours in the appropriate medium. The initial suspension was enumerated for each alga and is referred to as the starting inoculums. Chlorella sorokiniana was at 381 million cells per milliliter and Chlorella minutissima was at 19 million cells per milliliter. One milliliter of the algal solution was placed into 9 mLs of medium and mixed by vortexing. […] The tube of algae and MSM were incubated at room temperature with exposure to sunlight. […] Each dilution of MSM for each organism was set up in and analyzed in triplicate for each time interval measured. The samples were measured by percent transmittance on a UV/VIS spectrophotometer at wavelength 750 nm. The medium stock was tested for percent transmittance background levels at every time interval were measured. The lower percent transmittance indicated a higher growth factor.

Substance: Methylsulfonylmethane [MSM]
- Growth, percent transmittance at 750 nm (MSM 0.5%, Sample Day 0): 93.5%
- Growth, percent transmittance at 750 nm (MSM 0.5%, Sample Day 1): 70.1%
- Growth, percent transmittance at 750 nm (MSM 0.5%, Sample Day 2): 45.4%
- Growth, percent transmittance at 750 nm (MSM 0.5%, Sample Day 3): 32.1%
- Growth, percent transmittance at 750 nm (MSM 0.5%, Sample Day 4): 27.6%
- Growth, percent transmittance at 750 nm (MSM 0.5%, Sample Day 5): 26.6%
- Growth, percent transmittance at 750 nm (MSM 0.5%, Sample Day 6): 25.1%
- Growth, percent transmittance at 750 nm (MSM 0.5%, Sample Day 7): 23.6%
- Growth, percent transmittance at 750 nm (MSM 0.5%, Sample Day 8): 22.8%
- Growth, percent transmittance at 750 nm (MSM 0.5%, Sample Day 9): 20.4%
- Growth, percent transmittance at 750 nm (MSM 0.5%, Sample Day 10): 18.9%
- Growth, percent transmittance at 750 nm (MSM 1.0%, Sample Day 0): 91.1%
- Growth, percent transmittance at 750 nm (MSM 1.0%, Sample Day 1): 80.5%
- Growth, percent transmittance at 750 nm (MSM 1.0%, Sample Day 2): 40.0%
- Growth, percent transmittance at 750 nm (MSM 1.0%, Sample Day 3): 31.0%
- Growth, percent transmittance at 750 nm (MSM 1.0%, Sample Day 4): 27.9%
- Growth, percent transmittance at 750 nm (MSM 1.0%, Sample Day 5): 26.5%
- Growth, percent transmittance at 750 nm (MSM 1.0%, Sample Day 6): 25.4%
- Growth, percent transmittance at 750 nm (MSM 1.0%, Sample Day 7): 24.4%
- Growth, percent transmittance at 750 nm (MSM 1.0%, Sample Day 8): 23.7%
- Growth, percent transmittance at 750 nm (MSM 1.0%, Sample Day 9): 21.0%
- Growth, percent transmittance at 750 nm (MSM 1.0%, Sample Day 10): 19.4%
- Growth, percent transmittance at 750 nm (MSM 5.0%, Sample Day 0): 68.9%
- Growth, percent transmittance at 750 nm (MSM 5.0%, Sample Day 1): 87.4%
- Growth, percent transmittance at 750 nm (MSM 5.0%, Sample Day 2): 76.5%
- Growth, percent transmittance at 750 nm (MSM 5.0%, Sample Day 3): 62.0%
- Growth, percent transmittance at 750 nm (MSM 5.0%, Sample Day 4): 52.9%
- Growth, percent transmittance at 750 nm (MSM 5.0%, Sample Day 5): 52.2%
- Growth, percent transmittance at 750 nm (MSM 5.0%, Sample Day 6): 50.7%
- Growth, percent transmittance at 750 nm (MSM 5.0%, Sample Day 7): 51.0%
- Growth, percent transmittance at 750 nm (MSM 5.0%, Sample Day 8): 51.9%
- Growth, percent transmittance at 750 nm (MSM 5.0%, Sample Day 9): 47.1%
- Growth, percent transmittance at 750 nm (MSM 5.0%, Sample Day 10): 44.1%
- Growth, percent transmittance at 750 nm (MSM 10.0%, Sample Day 0): 49.6%
- Growth, percent transmittance at 750 nm (MSM 10.0%, Sample Day 1): 49.2%
- Growth, percent transmittance at 750 nm (MSM 10.0%, Sample Day 2): 50.8%
- Growth, percent transmittance at 750 nm (MSM 10.0%, Sample Day 3): 51.9%
- Growth, percent transmittance at 750 nm (MSM 10.0%, Sample Day 4): 52.0%
- Growth, percent transmittance at 750 nm (MSM 10.0%, Sample Day 5): 51.9%
- Growth, percent transmittance at 750 nm (MSM 10.0%, Sample Day 6): 54.9%
- Growth, percent transmittance at 750 nm (MSM 10.0%, Sample Day 7): 56.1%
- Growth, percent transmittance at 750 nm (MSM 10.0%, Sample Day 8): 58.6%
- Growth, percent transmittance at 750 nm (MSM 10.0%, Sample Day 9): 41.4%
- Growth, percent transmittance at 750 nm (MSM 10.0%, Sample Day 10): 36.7%
- Growth, percent transmittance at 750 nm (MSM 20.0%, Sample Day 0): 30.0%
- Growth, percent transmittance at 750 nm (MSM 20.0%, Sample Day 1): 33.8%
- Growth, percent transmittance at 750 nm (MSM 20.0%, Sample Day 2): 51.1%
- Growth, percent transmittance at 750 nm (MSM 20.0%, Sample Day 3): 54.8%
- Growth, percent transmittance at 750 nm (MSM 20.0%, Sample Day 4): 57.3%
- Growth, percent transmittance at 750 nm (MSM 20.0%, Sample Day 5): 57.5%
- Growth, percent transmittance at 750 nm (MSM 20.0%, Sample Day 6): 57.4%
- Growth, percent transmittance at 750 nm (MSM 20.0%, Sample Day 7): 57.1%
- Growth, percent transmittance at 750 nm (MSM 20.0%, Sample Day 8): 55.8%
- Growth, percent transmittance at 750 nm (MSM 20.0%, Sample Day 9): 45.1%
- Growth, percent transmittance at 750 nm (MSM 20.0%, Sample Day 10): 30.2%
- Growth, percent transmittance at 750 nm (MSM […], Sample Day 0): 82.8%
- Growth, percent transmittance at 750 nm (MSM […], Sample Day 1): 75.1%
- Growth, percent transmittance at 750 nm (MSM […], Sample Day 2): 59.5%
- Growth, percent transmittance at 750 nm (MSM […], Sample Day 3): 45.4%
- Growth, percent transmittance at 750 nm (MSM […], Sample Day 4): 33.6%
- Growth, percent transmittance at 750 nm (MSM […], Sample Day 5): 32.4%
- Growth, percent transmittance at 750 nm (MSM […], Sample Day 6): 30.0%
- Growth, percent transmittance at 750 nm (MSM […], Sample Day 7): 28.6%
- Growth, percent transmittance at 750 nm (MSM […], Sample Day 8): 27.7%
- Growth, percent transmittance at 750 nm (MSM […], Sample Day 9): 23.3%
- Growth, percent transmittance at 750 nm (MSM […], Sample Day 10): 21.1%
